Like-named read-outs stand apart in the source and are kept apart here.

One assay has as its target T1, GBS 0582 (Streptococcus agalactiae, UniProt Q8E126).
T1 sequence (Q8E126 1-311): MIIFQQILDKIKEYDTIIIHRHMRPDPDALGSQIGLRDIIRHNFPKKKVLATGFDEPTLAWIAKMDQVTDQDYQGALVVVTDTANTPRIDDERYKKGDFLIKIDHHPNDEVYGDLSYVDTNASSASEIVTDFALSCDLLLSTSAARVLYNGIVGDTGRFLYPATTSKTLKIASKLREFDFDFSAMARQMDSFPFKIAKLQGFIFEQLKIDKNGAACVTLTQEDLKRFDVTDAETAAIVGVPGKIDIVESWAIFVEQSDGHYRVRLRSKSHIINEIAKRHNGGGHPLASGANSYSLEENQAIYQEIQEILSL
Put plainly: biochemical. More on the design: species or system S. agalactiae.

A further assay addresses GBS 0307 (Streptococcus agalactiae, UniProt Q8E1N5, T550A). Put plainly: biochemical.
In assay [1] the test system is S. agalactiae NEM316 wild type strain. Nature of the assay: Sensitivity to colistin (MIC) of the wild type strain.
Description: Screening for sensitivity to cationic peptide colistin and cell wall defect of the mutant library. The S. agalactiae mutants were grown TH-Kn in 96-wells microplates over-night. Bacteria were then diluted to 1:1000 and each dilution was dispatched into two microplates. In one microplate 50 μl of TH was added, whereas 50 μl of 512 μg/ml colistin (Sigma) or 2 μg/ml novobiocin (Sigma) was added in the other thus obtaining final concentrations of 256 μg/ml and 1 μg/ml, respectively. Microplates were incubated overnight at 37° C. OD600 of microplates was read on a Multiskan Ex apparatus (Thermo).

Chain of GBS 0307 (Q8E1N5 whole entry T550A): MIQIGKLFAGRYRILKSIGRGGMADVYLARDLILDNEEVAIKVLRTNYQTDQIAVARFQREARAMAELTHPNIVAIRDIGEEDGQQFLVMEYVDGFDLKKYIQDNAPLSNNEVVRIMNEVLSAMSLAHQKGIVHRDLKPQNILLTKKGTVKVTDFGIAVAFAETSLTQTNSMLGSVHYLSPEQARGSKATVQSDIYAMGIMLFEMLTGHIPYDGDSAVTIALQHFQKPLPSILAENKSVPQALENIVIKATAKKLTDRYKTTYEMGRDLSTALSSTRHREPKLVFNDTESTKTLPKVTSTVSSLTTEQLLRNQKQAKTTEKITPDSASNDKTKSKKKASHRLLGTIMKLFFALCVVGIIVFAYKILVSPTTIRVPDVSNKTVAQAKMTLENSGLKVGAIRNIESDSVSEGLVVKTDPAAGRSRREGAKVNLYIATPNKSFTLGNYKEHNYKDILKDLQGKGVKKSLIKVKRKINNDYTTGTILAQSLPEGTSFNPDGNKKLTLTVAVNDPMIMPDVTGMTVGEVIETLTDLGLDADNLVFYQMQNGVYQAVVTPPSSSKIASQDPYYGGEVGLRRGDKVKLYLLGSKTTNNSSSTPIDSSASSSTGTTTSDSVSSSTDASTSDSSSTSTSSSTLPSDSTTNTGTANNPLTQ

As to `Nc1ncnc2c1ncn2[C@@H]1O[C@H](COP(=O)(O)OP(=O)(O)O)[C@@H](O)[C@H]1O` [ADP], the IC50 on GBS 0582 (read-out: IC50) was 405 µM. Regarding `Nc1ncnc2c1ncn2[C@@H]1O[C@H](COP(=O)(O)O)[C@@H](O)[C@H]1O` [AMP, Adenosine monophosphate], on GBS 0582, inhibition was half-maximal at 235 ± 45 µM (IC50). Take `CN[C@@H]1C[C@H]2O[C@@](C)([C@@H]1OC)n1c3ccccc3c3c4c(c5c6ccccc6n2c5c31)C(=O)NC4` [Staurosporine]: it took 0.023 ± 0.008 µM to reach half-maximal inhibition against GBS 0307 (IC50). Consider colistin, for which the CMI in assay [1] is at most 1024 µg/mL.

Usually IC50 stands for the concentration needed to halve the response being measured.

These data come from patent publication US20100261618A1, “Identification of genes implicated in the virulence of streptococcus agalactiae” (priority 2006, published 2010).
